Laboratory results from ChEMBL document CHEMBL1201862, “PubChem BioAssay data set” (2004).
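All cell lines were grown in 96-well plates and treated with compound for 48 hours. GI50 is the concentration that inhibits growth by half.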 Activity calls are given as the source filed them. No stated cut-off is given here; in the data, active = GI50 up to about 1.1 µM and inactive = higher.

Legend:
Assay in all cases: growth of human tumour cells (NCI), 48 h
[1] = test system: OVCAR-8
[2] = test system: NCI-H522
[3] = test system: UACC-257
[4] = test system: A549
[5] = test system: SN12C
[6] = test system: EKVX
[7] = test system: LOX IMVI
[8] = test system: M14
[9] = test system: K562
[10] = test system: SW-620
[11] = test system: SF-295
[12] = test system: SK-MEL-2
[13] = test system: SNB-75
[14] = test system: SK-MEL-5
[15] = test system: SNB-19
[16] = test system: RPMI-8226
[17] = test system: UACC-62
[18] = test system: U-251
[19] = test system: OVCAR-4
[20] = test system: NCI-H460

Measured: GI50

C=CC(=O)Nc1ccccc1CC(c1c[nH]c2ccccc12)c1c[nH]c2ccccc12
inactive: [1] 16.4 µM | [2] 22.8 µM | [3] 18.9 µM | [4] 23.4 µM | [5] 16.3 µM | [6] 17.5 µM | [7] 18.5 µM | [8] 16.3 µM | [9] 20.7 µM | [10] 20.2 µM | [11] 22.1 µM | [12] 17.7 µM | [13] 14.1 µM | [14] 17.6 µM | [15] 17.9 µM | [16] 17.5 µM | [17] 16.6 µM

CCC(=O)c1ccc2[nH]c3c(C)c4c(O)cc(C)nc4c(C)c3c2c1
inactive: [1] > 100 µM | [2] > 100 µM | [3] > 100 µM | [4] > 100 µM | [6] > 100 µM | [18] 42.6 µM | [7] > 100 µM | [8] > 100 µM | [10] > 100 µM | [11] > 100 µM | [12] > 100 µM | [13] > 100 µM | [14] > 100 µM | [19] > 100 µM | [15] > 100 µM | [20] > 100 µM

CCOC1NC(=O)Oc2ccccc21 (stereo unspecified)
inactive: [1] > 100 µM | [2] > 100 µM | [3] > 100 µM | [4] > 100 µM | [5] > 100 µM | [6] > 100 µM | [18] > 100 µM | [7] > 100 µM | [8] > 100 µM | [9] > 100 µM | [10] > 100 µM | [11] > 100 µM | [12] > 100 µM | [13] > 100 µM | [14] > 100 µM | [19] > 100 µM | [15] > 100 µM | [20] > 100 µM | [17] > 100 µM

C/C(CC(=O)Nc1ccc([N+](=O)[O-])cc1)=N\Nc1ccc([N+](=O)[O-])cc1[N+](=O)[O-]
inactive: [1] > 100 µM | [2] 25.9 µM | [3] 47.1 µM | [4] 44.7 µM | [6] > 100 µM | [18] > 100 µM | [7] 10.7 µM | [8] > 100 µM | [9] 20.2 µM | [10] > 100 µM | [11] 47.5 µM | [12] > 100 µM | [13] > 100 µM | [14] 47.4 µM | [20] 44.4 µM | [16] 56.4 µM | [17] 49 µM

CC1=NN(c2cccc(Cl)c2)C(=N/c2nc3ccccc3s2)/C1=C\c1ccc(Cl)cc1
inactive: [1] 19.8 µM | [2] 18.7 µM | [3] 20.7 µM | [6] 33.2 µM | [18] 14.8 µM | [7] 18.2 µM | [8] 23.8 µM | [9] 29 µM | [10] 19.9 µM | [11] 23.4 µM | [12] 17.9 µM | [13] 26.4 µM | [14] 15.8 µM | [20] 17.2 µM | [16] 37.2 µM

O=C1NC2(CCCCCC2)C2CCCCCCC12O (stereo unspecified)
inactive: [1] > 100 µM | [2] > 100 µM | [3] > 100 µM | [4] > 100 µM | [5] > 100 µM | [6] > 100 µM | [18] > 100 µM | [7] > 100 µM | [8] > 100 µM | [9] > 100 µM | [10] > 100 µM | [11] > 100 µM | [12] > 100 µM | [13] > 100 µM | [14] > 100 µM | [19] > 100 µM | [15] > 100 µM | [20] > 100 µM | [17] > 100 µM

CC(=O)SC(SC(C)=O)SC(C)=O
inactive: [1] > 100 µM | [2] 20.7 µM | [3] 55 µM | [4] 37.2 µM | [5] > 100 µM | [6] > 100 µM | [18] > 100 µM | [7] 58.5 µM | [8] > 100 µM | [9] 54.5 µM | [10] > 100 µM | [12] > 100 µM | [13] 60.3 µM | [14] > 100 µM | [19] > 100 µM | [15] > 100 µM | [20] > 100 µM | [17] 84.1 µM

O=C1c2ccccc2S(=O)(=O)c2cc(-c3nn[nH]n3)ccc21 [DOXANTRAZOLE]
inactive: [1] > 100 µM | [2] > 100 µM | [3] > 100 µM | [4] > 100 µM | [5] > 100 µM | [6] > 100 µM | [18] > 100 µM | [7] > 100 µM | [8] > 100 µM | [9] > 100 µM | [10] > 100 µM | [11] > 100 µM | [12] > 100 µM | [13] > 100 µM | [14] > 100 µM | [19] > 100 µM | [15] > 100 µM | [20] > 100 µM | [17] > 100 µM

CSCCC(NC(=O)Cc1ccc(C(=O)c2ccccc2)cc1)C(=O)O (stereo unspecified)
inactive: [1] > 100 µM | [2] > 100 µM | [3] > 100 µM | [4] > 100 µM | [5] > 100 µM | [6] > 100 µM | [18] > 100 µM | [7] > 100 µM | [8] > 100 µM | [9] > 100 µM | [10] > 100 µM | [11] > 100 µM | [12] > 100 µM | [13] > 100 µM | [14] > 100 µM | [19] > 100 µM | [15] > 100 µM | [20] > 100 µM | [17] > 100 µM

COc1ccc(O)cc1C(O)c1ccccc1 (stereo unspecified)
inactive: [1] > 100 µM | [2] > 100 µM | [3] > 100 µM | [4] > 100 µM | [5] > 100 µM | [6] > 100 µM | [18] > 100 µM | [7] > 100 µM | [8] > 100 µM | [9] > 100 µM | [10] > 100 µM | [11] > 100 µM | [12] > 100 µM | [13] > 100 µM | [14] > 100 µM | [19] > 100 µM | [15] > 100 µM | [20] > 100 µM | [17] > 100 µM

CCOc1ccncc1[N+](=O)[O-]
inactive: [1] > 100 µM | [2] > 100 µM | [3] > 100 µM | [4] > 100 µM | [5] > 100 µM | [6] > 100 µM | [18] > 100 µM | [7] > 100 µM | [8] > 100 µM | [9] > 100 µM | [10] > 100 µM | [11] > 100 µM | [12] > 100 µM | [13] > 100 µM | [14] > 100 µM | [15] > 100 µM | [16] > 100 µM | [17] > 100 µM
